According to patent US12643853B2, “Cannabigerol proline cocrystals” (Manoira Corporation, priority 2019, dated 2026):

What was measured:
[1] = oven at 100° C. for 20 hours
Procedure: (§1) X-Ray Powder Diffraction Characterisation: X-ray powder diffraction patterns for the samples were acquired on a Bruker D8 diffractometer using CuKα radiation (40 kV, 40 mA), θ-2θ goniometer, V4 receiving slits, a Ge monochromator and a Lynxeye detector. The instrument is performance checked using a certified Corundum standard (NIST 1976). The data were collected over an angular range of 4° to 30° 2Θ using a step size of 0.05° 2Θ and a step time of 4 seconds. Samples were run under ambient conditions as flat plate specimens using powder as received. Approximately, 35 mg of the sample was gently packed into a cavity cut into polished, zero background (510) silicon wafer. The software used for data collection and analysis was Diffrac Plus XRD Commander and Diffrac Plus EVA respectively.

[2] = sealed container, 40° C. and 75% relative humidity, 8 weeks
Procedure: as §1
A study was carried out to examine the physical stability of the 1:2 cannabigerol L-proline cocrystal with respect to solid form conversion or deliquescence over time under accelerated conditions. 1:2 Cannabigerol L-proline cocrystal (50 mg) was placed in a sealed container at 40° C. and 75% relative humidity and stored under these conditions for 8 weeks. […] The sample was analysed by XRPD to observe any potential form changes.

[3] = Solid-state stability of cannabigerol Form I at 50° C.; format: physicochemical; settings: oven at 50° C. for 10 minutes; for solid form by XRPD after heating and cooling: then allowed to cool
Procedure: A study was carried out to assess the stability of cannabigerol Form I under conditions of temperatures commonly reached during processing and storage. Cannabigerol Form I (50 mg) was placed in an oven at 50° C. for 10 minutes. […] The sample was allowed to cool after which time a solid was produced.

| SMILES | solid form conversion by XRPD after high temperature storage [1] | physical state / deliquescence after storage [2] | solid form conversion by XRPD after storage ([2]; XRPD) | physical state after heating [3] | solid form by XRPD after heating and cooling [3] | solid form by XRPD after heating and cooling ([3]; listed as cannabigerol Form I) | physical state after heating ([3]; listed as cannabigerol Form I) |
| --- | --- | --- | --- | --- | --- | --- | --- |
| CCCCCc1cc(O)c(C/C=C(\C)CCC=C(C)C)c(O)c1.O=C(O)[C@@H]1CCCN1.O=C(O)[C@@H]1CCCN1 [1:2 cannabigerol L-proline cocrystal] | retained its original crystalline form | completely solid with no signs of deliquescence | retained its original crystalline form |  |  |  |  |
| CCCCCc1cc(O)c(C/C=C(\C)CCC=C(C)C)c(O)c1 [Cannabigerol Form I, 2-[(2E)-3,7-dimethylocta-2,6-dienyl]-5-pentyl-benzene-1,3-diol] |  |  |  | melted to produce an oil | undergone a polymorph transition to form a new polymorphic form (designated Form III) | undergone a form conversion to a previously unidentified polymorph (designated Form III) | became a liquid |
